Tests used:
[1] = system: AGS human gastric adenocarcinoma cell strain
Protocol: AGS human gastric adenocarcinoma cell strain (purchased from Shanghai Cell Resource Center, Chinese Academy of Sciences)
(§1) a) The compound was serially diluted with DMSO starting from 0.5 μM, using twice echelon dilution.
(§2) The logarithmic growth phase cells were collected and counted. The cells were re-suspended in complete medium, whose concentration was adjusted according to the test results of the cell density optimization, and then seeded into 96-well plates with 100 μl of the cell suspension to each well. The cells were incubated in a 37° C., 100% relative humidity, 5% CO2 incubator for 24 hours.
(§3) b) The test compound was diluted with the medium to the corresponding action concentrations set up, and added into the cells in the plates at 25 μl/well. The test compound was prepared in 9 final action concentrations, which were obtained by sequentially diluted from 500 nM using twice echelon dilution.
(§4) c) The cells were incubated in a 37° C., 100% relative humidity, 5% CO2 incubator for 72 hours.
(§5) d) The medium was removed from the cells, and a complete medium containing 10% CCK-8 was added and incubated in a 37° C. incubator for 1-4 hours.
(§6) e) After gentle shaking, the absorbance at 450 nm of the sample was measured on a SpectraMax M5 Microplate Reader, and the inhibition ratio was calculated using the absorbance at 650 nm as reference.
(§7) The inhibition ratio of the drug on tumor cell growth was calculated as follows: tumor cell growth inhibition %=[(Ac−As)/(Ac−Ab)]×100%
(§8) The IC50 curve was fitted and the IC50 value was calculated using the software Graphpad Prism 5 and using the calculation formula log(inhibitor) vs. normalized response-variable slope or log(inhibitor) vs. response-variable slope.

[2] = system: blood flow distribution in tissues and tumor tissue; test: Blood flow distribution of tissues and tumor; type: in vivo, nude mice; details: two hours after administration, same pharmacodynamic dose, vs blank vehicle
From the text: In this example, the effects of drugs on blood flow distribution of different tissues and organs at the same pharmacodynamic dose were simultaneously tested.

[3] = Stability investigation (10-day accelerated stress testing)
Protocol: The tested conditions included 40° C., 60° C., humidity 75%, humidity 92.5%, and light. And under each condition, moisture, purity, maximum single impurity and total impurity of the compound tested were compared to that of day 0.

[4] = system: A-673 human rhabdomyosarcoma cell strain
Protocol: (§9) To test the cytotoxic IC50 values of 14 candidate compounds against 5 cell strains (MDA-MB-231, HT-1080, AGS, A-673 & HUVEC) using a CCK-8 test kit.
as §1, §2, §3, §4, §5, §6, §7, §8

neutrophil count = details: rat, in vivo
From the text: Multiple doses of different drugs were administrated to the nude mice respectively and the potency of the drugs in inhibiting the transplanted tumor in the nude mice was investigated. Base on the investigation, the equivalent dose of each drug was identified and converted to rat dose before administrated to the rats. That is, by administrating the rats with relatively equivalent pharmacodynamic dose, the effect of the drugs on the neutrophil count was examined. After continuously administration for two weeks, blood samples were collected and neutrophil counts were measured (FIG. 3).

[5] = system: MDA-MB-231 human breast cancer cell strain
Protocol: as §9
MDA-MB-231 human breast cancer cell strain (purchased from Shanghai Cell Resource Center, Chinese Academy of Sciences)
as §1, §2, §3, §4, §5, §6, §7, §8

[6] = system: drug-resistant MES-SA cells (p-glycoprotein induced); test: Inhibitory effect on tumor proliferation, drug-resistant MES-SA transplanted tumor; type: in vivo; details: drug-resistant MES-SA nude mice, dose that does not reduce body weight, vs blank vehicle (FIG. 1)
Protocol: MES-SA cells (derived from ATCC) were cultured in low concentration of adriamycin for a long time to maintain sufficient cell viability and induced the expression of p-glycoprotein. After culturing for 10 months, the results of induced expression were detected by WB. After successful induction, the cells were cultured for one week in adriamycin-free medium. The tumor cells with adjusted concentration were inoculated into the armpit of nude mice. The transplanted tumors were treated with different drugs when they grew to a certain volume. Different doses of different drugs were administrated to blank mice to explore the drug dose not affecting the body weight of the animals, namely the dose to be administrated to treat the animals with transplanted tumors.

[7] = system: HUVEC human umbilical vein endothelial cell strain
Protocol: HUVEC human umbilical vein endothelial cell strain (purchased from ScienCell Research Laboratories, Cat #8000, Lot #11233)
as §1, §2, §3, §4, §5, §6, §7, §8

[8] = system: HT-1080 human fibrosarcoma cell strain
Protocol: as §9, §1, §2, §3, §4, §5, §6, §7, §8

IC50 [1]: > 600 nM | Content ([3]; 40° C., day 5): 97.86% | Maximum single impurity ([3]; 40° C., day 5): 0.73 RRT: 0.58) % | Content ([3]; 40° C., day 10): 98.36% | Maximum single impurity ([3]; 40° C., day 10): 1.22 (RRT: 0.58) % | Content ([3]; 60° C., day 5): 95.77% | Maximum single impurity ([3]; 60° C., day 5): 2.84 (RRT: 0.24) % | Content ([3]; 60° C., day 10): 93.45% | Maximum single impurity ([3]; 60° C., day 10): 3.97 (RRT: 0.24) % | Content ([3]; Day 0): 99.37% | Maximum single impurity ([3]; Day 0): 0.39 (RRT: 0.58) % | IC50 [4]: > 600 nM | IC50 [5]: > 600 nM | IC50 [7]: > 600 nM | IC50 [8]: > 600 nM
SMILES: C=CC(C)(C)c1[nH]cnc1/C=C1\NC(=O)[C@H](Cc2ccccc2)NC1=O [(−)phenylahistin, reference compound]
distribution of blood flow in tissues except tumor tissues [2]: did not significantly affect the distribution of blood flow in tissues except tumor tissues | intratumoral blood flow distribution [2]: can significantly reduce the intratumoral blood flow distribution | neutrophil count (neutrophil count): significantly lower than blank vehicle group | anti-tumor proliferation effect (tumor weight) [6]: almost had no effect against tumor proliferation

Reference: US10640492B2, “Tubulin inhibitor” (SHENZHEN NEPTUNUS PHARMACEUTICAL RESEARCH INSTITUTE CO., …, priority 2016, dated 2020)
